Data from ChEMBL document CHEMBL5665443, “Enzyme Inhibitor Single Concentration assay results for EUbOPEN Chemogenomics Library” (2024).

Assays:
[1] = target: Endonuclease 8-like 1 (Homo sapiens) (UniProt Q96FI4); details: Hit No;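 further: fluorescence at 594 nm from quenched duplex DNA oligonucleotides released by NEIL1 cleavage and strand separation, reported as reduction of this enzyme activity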
Description: Inhibition of NEIL1 by quantifying inhibition of NEIL1-mediated cleavage and dissociation of quenched duplex DNA oligonucleotides, measured as fluorescence at 594 nm.

[2] = target: T1, Endonuclease 8-like 2 (Homo sapiens) (UniProt Q969S2); details: Hit No;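 further: fluorescence at 594 nm reports NEIL2 cutting and release of a quenched double-stranded DNA oligo substrate, reduced signal read as inhibition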
T1 sequence (whole entry): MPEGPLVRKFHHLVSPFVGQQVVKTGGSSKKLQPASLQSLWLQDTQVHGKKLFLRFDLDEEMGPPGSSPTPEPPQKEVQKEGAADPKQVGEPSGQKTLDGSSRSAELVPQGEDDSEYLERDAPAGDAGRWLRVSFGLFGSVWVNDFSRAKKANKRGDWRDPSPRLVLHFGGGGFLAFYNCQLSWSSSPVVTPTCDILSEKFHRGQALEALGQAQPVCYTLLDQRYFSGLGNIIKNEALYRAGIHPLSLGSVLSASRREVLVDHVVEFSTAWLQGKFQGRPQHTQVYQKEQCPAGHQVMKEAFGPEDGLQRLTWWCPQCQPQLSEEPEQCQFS
Description: Inhibition of NEIL2 by quantifying inhibition of NEIL2-mediated cleavage and dissociation of quenched duplex DNA oligonucleotides, measured as fluorescence at 594 nm.

[3] = target: T2, Endonuclease III-like protein 1 (Homo sapiens) (UniProt P78549); details: Hit No;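 further: enzyme assay tracking NTHL1 cutting and release of a quenched double-stranded DNA oligo substrate, read as fluorescence at 594 nm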
T2 sequence (whole entry): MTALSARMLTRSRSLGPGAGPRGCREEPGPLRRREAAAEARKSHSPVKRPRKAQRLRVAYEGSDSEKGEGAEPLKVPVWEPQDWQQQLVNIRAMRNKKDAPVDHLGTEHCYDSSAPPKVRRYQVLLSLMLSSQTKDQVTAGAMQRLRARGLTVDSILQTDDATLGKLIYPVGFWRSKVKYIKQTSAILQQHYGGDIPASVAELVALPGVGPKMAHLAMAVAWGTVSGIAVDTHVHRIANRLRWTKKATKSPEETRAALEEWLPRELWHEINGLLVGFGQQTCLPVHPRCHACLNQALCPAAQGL
Description: Inhibition of NTHL1 by quantifying inhibition of NTHL1-mediated cleavage and dissociation of quenched duplex DNA oligonucleotides, measured as fluorescence at 594 nm.

[4] = target: G/T mismatch-specific thymine DNA glycosylase (Homo sapiens) (UniProt Q13569); details: Hit No;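 further: human TDG cleavage of quenched duplex DNA oligonucleotides coupled to APE1, strand release read as fluorescence at 594 nm, inhibition of TDG activity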
Description: Inhibition of TDG by quantifying inhibition of TDG-mediated cleavage and dissociation of quenched duplex DNA oligonucleotides, measured as fluorescence at 594 nm. To generate a functional strand incision and increase turn-over this assay is coupled to APE1.

[5] = target: T3, Single-strand selective monofunctional uracil DNA glycosylase (Homo sapiens) (UniProt Q53HV7); details: Hit No;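 further: enzymatic SMUG1 assay coupled with APE1, reading fluorescence at 594 nm released when a quenched double-stranded DNA oligonucleotide substrate is cleaved and separated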
T3 sequence (whole entry): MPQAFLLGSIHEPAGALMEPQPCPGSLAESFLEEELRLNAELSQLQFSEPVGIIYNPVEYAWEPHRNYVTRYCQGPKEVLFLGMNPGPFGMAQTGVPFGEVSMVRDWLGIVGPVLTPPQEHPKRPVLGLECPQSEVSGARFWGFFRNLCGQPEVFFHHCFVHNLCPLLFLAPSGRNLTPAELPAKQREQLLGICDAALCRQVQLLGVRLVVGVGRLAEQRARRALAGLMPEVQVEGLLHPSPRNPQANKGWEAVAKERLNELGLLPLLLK
Description: Inhibition of SMUG1 by quantifying inhibition of SMUG1-mediated cleavage and dissociation of quenched duplex DNA oligonucleotides, measured as fluorescence at 594 nm. To generate a functional strand incision and increase turn-over this assay is coupled to APE1.

[6] = target: N-glycosylase/DNA lyase (Homo sapiens) (UniProt O15527);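 further: OGG1 cleavage of a quenched duplex DNA oligonucleotide, coupled to APE1 for strand incision, read as fluorescence at 594 nm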
Description: Inhibition of OGG1 by quantifying inhibition of OGG1-mediated cleavage and dissociation of quenched duplex DNA oligonucleotides, measured as fluorescence at 594 nm. To generate a functional strand incision and increase turn-over this assay is coupled to APE1.

[7] = target: Methyl-CpG-binding domain protein 4 (Homo sapiens) (UniProt O95243); details: Hit No;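 further: MBD4 activity read as fluorescence at 594 nm from cleavage and release of a quenched duplex DNA oligonucleotide, with APE1 coupled to incise the strand and raise turnover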
Description: Inhibition of MBD4 by quantifying inhibition of MBD4-mediated cleavage and dissociation of quenched duplex DNA oligonucleotides, measured as fluorescence at 594 nm. To generate a functional strand incision and increase turn-over this assay is coupled to APE1.

[8] = target: T4, Adenine DNA glycosylase (Homo sapiens) (UniProt Q9UIF7); details: Hit No;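 further: human MUTYH activity read as 594 nm fluorescence from cleavage and release of a quenched DNA duplex, coupled with APE1 for strand incision, lower signal meaning inhibition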
T4 sequence (whole entry): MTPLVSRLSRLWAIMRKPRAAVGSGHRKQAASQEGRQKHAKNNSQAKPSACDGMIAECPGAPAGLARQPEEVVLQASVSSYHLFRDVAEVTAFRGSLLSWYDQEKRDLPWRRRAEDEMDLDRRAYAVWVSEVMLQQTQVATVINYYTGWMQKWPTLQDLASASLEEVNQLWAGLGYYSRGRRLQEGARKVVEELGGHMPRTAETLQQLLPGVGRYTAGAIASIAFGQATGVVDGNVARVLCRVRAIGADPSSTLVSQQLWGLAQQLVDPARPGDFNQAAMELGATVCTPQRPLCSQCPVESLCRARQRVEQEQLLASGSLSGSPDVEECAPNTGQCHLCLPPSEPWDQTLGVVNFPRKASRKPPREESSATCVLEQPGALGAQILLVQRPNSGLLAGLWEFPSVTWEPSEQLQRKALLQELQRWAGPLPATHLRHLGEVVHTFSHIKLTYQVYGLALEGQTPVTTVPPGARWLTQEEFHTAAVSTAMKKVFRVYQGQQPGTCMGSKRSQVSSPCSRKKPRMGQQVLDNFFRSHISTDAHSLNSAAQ
Description: Inhibition of MUTYH by quantifying inhibition of MUTYH-mediated cleavage and dissociation of quenched duplex DNA oligonucleotides, measured as fluorescence at 594 nm. To generate a functional strand incision and increase turn-over this assay is coupled to APE1.

[9] = target: Uracil-DNA glycosylase (Homo sapiens) (UniProt P13051); details: Hit No;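 further: UNG excision on a quenched double-stranded DNA oligo probe, with APE1 added for strand incision and turnover, read as fluorescence at 594 nm as strands separate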
Description: Inhibition of UNG by quantifying inhibition of UNG-mediated cleavage and dissociation of quenched duplex DNA oligonucleotides, measured as fluorescence at 594 nm. To generate a functional strand incision and increase turn-over this assay is coupled to APE1.

[10] = Compound Concentration 10.0 uM, Hit No
[11] = Compound Concentration 1.0 uM, Hit No
[12] = Compound Concentration 10.0 uM, Hit Yes

Sequence of G/T mismatch-specific thymine DNA glycosylase (Homo sapiens) (Q13569 whole entry): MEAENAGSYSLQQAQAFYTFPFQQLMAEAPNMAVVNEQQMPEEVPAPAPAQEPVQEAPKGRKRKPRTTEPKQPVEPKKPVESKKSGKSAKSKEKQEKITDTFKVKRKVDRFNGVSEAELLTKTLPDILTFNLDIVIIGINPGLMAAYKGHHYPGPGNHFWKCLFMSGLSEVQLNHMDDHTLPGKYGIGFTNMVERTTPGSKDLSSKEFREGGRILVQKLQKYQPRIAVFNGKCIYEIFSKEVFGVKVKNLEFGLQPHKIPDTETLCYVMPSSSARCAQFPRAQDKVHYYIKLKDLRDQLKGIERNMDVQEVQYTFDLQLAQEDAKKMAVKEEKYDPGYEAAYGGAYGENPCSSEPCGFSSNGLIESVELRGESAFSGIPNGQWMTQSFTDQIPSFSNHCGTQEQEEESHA
Sequence of Endonuclease 8-like 1 (Homo sapiens) (Q96FI4 whole entry): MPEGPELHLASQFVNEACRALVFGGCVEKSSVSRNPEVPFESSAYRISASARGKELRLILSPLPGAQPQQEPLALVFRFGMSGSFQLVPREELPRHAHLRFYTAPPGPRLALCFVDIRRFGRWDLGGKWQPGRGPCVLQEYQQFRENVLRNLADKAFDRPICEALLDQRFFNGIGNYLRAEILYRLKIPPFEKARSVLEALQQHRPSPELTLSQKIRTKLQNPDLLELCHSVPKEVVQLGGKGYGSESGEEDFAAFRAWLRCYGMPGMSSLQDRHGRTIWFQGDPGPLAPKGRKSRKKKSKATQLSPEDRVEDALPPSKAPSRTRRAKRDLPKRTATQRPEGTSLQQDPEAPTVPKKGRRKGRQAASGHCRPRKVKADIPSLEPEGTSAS
Sequence of N-glycosylase/DNA lyase (Homo sapiens) (O15527 whole entry, the tested form may be a part): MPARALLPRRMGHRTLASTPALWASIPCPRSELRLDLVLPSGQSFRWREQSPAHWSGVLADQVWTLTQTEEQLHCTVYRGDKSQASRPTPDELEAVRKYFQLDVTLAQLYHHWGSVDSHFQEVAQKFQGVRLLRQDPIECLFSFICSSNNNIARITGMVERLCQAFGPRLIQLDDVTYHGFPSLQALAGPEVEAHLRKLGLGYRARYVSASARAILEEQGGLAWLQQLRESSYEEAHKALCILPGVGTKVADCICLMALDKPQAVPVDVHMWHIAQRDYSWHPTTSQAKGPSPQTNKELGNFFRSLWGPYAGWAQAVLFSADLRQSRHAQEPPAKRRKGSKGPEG
Sequence of Uracil-DNA glycosylase (Homo sapiens) (P13051 whole entry): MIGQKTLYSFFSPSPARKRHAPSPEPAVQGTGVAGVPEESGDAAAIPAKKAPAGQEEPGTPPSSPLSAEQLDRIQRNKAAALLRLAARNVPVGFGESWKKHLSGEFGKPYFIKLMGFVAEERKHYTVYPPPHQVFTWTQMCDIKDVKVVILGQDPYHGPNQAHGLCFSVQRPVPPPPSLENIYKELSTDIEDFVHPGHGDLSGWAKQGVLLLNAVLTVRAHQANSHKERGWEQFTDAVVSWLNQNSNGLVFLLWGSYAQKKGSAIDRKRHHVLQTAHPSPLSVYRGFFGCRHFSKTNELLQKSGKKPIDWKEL
Sequence of Methyl-CpG-binding domain protein 4 (Homo sapiens) (O95243 whole entry, the tested form may be a part): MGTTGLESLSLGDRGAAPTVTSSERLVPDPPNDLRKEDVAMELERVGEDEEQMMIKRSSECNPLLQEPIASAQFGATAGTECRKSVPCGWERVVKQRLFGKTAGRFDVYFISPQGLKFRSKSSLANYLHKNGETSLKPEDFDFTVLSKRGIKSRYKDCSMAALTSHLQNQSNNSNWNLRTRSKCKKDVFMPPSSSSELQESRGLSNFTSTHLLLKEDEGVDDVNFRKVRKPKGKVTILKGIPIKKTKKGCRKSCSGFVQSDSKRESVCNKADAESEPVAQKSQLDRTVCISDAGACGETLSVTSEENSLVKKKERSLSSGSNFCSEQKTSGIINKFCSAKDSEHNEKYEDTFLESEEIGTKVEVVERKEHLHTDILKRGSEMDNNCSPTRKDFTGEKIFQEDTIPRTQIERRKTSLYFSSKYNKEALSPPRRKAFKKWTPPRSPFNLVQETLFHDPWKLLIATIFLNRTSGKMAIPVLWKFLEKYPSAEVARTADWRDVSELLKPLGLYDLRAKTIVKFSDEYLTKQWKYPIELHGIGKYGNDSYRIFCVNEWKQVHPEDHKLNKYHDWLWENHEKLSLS

| inhibition ([1]; Compound Concentration 10.0 uM) [%] | inhibition ([2]; Compound Concentration 10.0 uM) [%] | inhibition ([3]; Compound Concentration 10.0 uM) [%] | inhibition ([4]; Compound Concentration 10.0 uM) [%] | inhibition ([5]; Compound Concentration 10.0 uM) [%] | inhibition [6, 10] [%] | inhibition ([7]; Compound Concentration 10.0 uM) [%] | inhibition ([8]; Compound Concentration 10.0 uM) [%] | inhibition ([9]; Compound Concentration 10.0 uM) [%] | inhibition ([1]; Compound Concentration 1.0 uM) [%] | inhibition ([2]; Compound Concentration 1.0 uM) [%] | inhibition ([3]; Compound Concentration 1.0 uM) [%] | inhibition ([4]; Compound Concentration 1.0 uM) [%] | inhibition ([5]; Compound Concentration 1.0 uM) [%] | inhibition [6, 11] [%] | inhibition ([7]; Compound Concentration 1.0 uM) [%] | inhibition ([8]; Compound Concentration 1.0 uM) [%] | inhibition ([9]; Compound Concentration 1.0 uM) [%] | inhibition [6, 12] [%] | SMILES |
| --- | --- | --- | --- | --- | --- | --- | --- | --- | --- | --- | --- | --- | --- | --- | --- | --- | --- | --- | --- |
| 5.29 | 8.58 | -4.1 | 48.3 | 15.1 | 2.35 | -6.01 | 8.44 | 4.06 |  |  |  |  |  |  |  |  |  |  | O=C(NCCCN1CCOC1=O)c1cnc(NCc2cc(Br)ccc2Br)nc1NC1CCCC1 |
| 5.13 | -3.23 | 10.7 | 18.1 | 12.8 | -0.266 | 25 | 19.2 | -2.44 |  |  |  |  |  |  |  |  |  |  | O=C(O)C1CN(Cc2ccc(OCc3ccc(Cl)c(Cl)c3)cc2)C1 |
|  |  |  |  |  |  |  |  |  | 0.138 | -7.84 | 1.48 | 25.9 | 16.9 | 1.67 | 48.6 | -3.03 | 2.27 |  | OCCn1cc(-c2ccc3c(c2)CCC3=NO)c(-c2ccncc2)n1 |
|  |  |  |  |  |  |  |  |  | 6.48 | 3.74 | 0.785 | 48.5 | 23.8 | 5.38 | 14.1 | 7.35 | 6.36 |  | Cc1ccc(C(=O)Nc2cccc(C(F)(F)F)c2)cc1Nc1nc(-c2cccnc2)nc2c1cnn2C |
| -1.4 | 3.25 | 2.05 | 49.5 | 12.3 | 31.6 | 42.6 | 24.5 | 2.5 |  |  |  |  |  |  |  |  |  |  | CC[C@@H](Nc1c(C#N)c(-c2ccc(-c3cccc(C)c3F)cc2)nc2cnccc12)C(=O)O |
| 7.86 | -3.66 | 13.8 | -2.2 | 17.8 | -7.14 | -8.27 | 4.25 | -1.45 |  |  |  |  |  |  |  |  |  |  | CC(C)C[C@H](NC(=O)c1cc2ccccc2s1)C(=O)N1CCN(C(=O)[C@H](CO)NS(=O)(=O)c2ccc(Cl)cc2Cl)CC1 |
| -2.11 | 1.55 | 17.8 | 98.5 | 18.5 | 62.7 | 60 | 14.6 | -0.945 |  |  |  |  |  |  |  |  |  |  | Cc1cc(SCc2sc(-c3ccc(C(F)(F)F)cc3)nc2C)ccc1OCC(=O)O |
| -4.83 | 5.89 | 2 | 54 | 33.2 |  | 61.5 | 2.57 | 8.18 |  |  |  |  |  |  |  |  |  | 106 | O=C(O)Cc1cccc(OCCCN(Cc2cccc(C(F)(F)F)c2Cl)CC(c2ccccc2)c2ccccc2)c1 |
| -7.26 | 5.38 | -3.26 | 97.2 | 20.2 | 10.8 | 57.5 | 1.43 | 4.47 |  |  |  |  |  |  |  |  |  |  | O=c1[nH]c2ccccc2n1CCCN1CCN(C(c2ccccc2)c2ccccc2)CC1 |
| -5.75 | -4.68 | -0.379 | 61.5 | 17.5 | 7.7 | 30.1 | 9.15 | 7.52 |  |  |  |  |  |  |  |  |  |  | Cc1nc(C2CCN(C(=O)c3ccc(OC(F)(F)F)cc3N)CC2)c2ncc(N3CCN(C)CC3)cc2n1 |
| -6.65 | 1.55 | -3.92 | 72.3 | 22.1 |  | 69 | 4.92 | 3.71 |  |  |  |  |  |  |  |  |  | 101 | CC(C)(C[C@H]1CN(S(=O)(=O)c2cccc(C(F)(F)F)c2)c2cc(-c3cc(F)cc(OC(F)F)c3)ccc2O1)C(=O)O |
|  |  |  |  |  |  |  |  |  | 2.52 | 0.505 | 2.18 | 29.2 | 19.5 | 3.08 | 4.16 | -1.15 | 3.77 |  | Nc1ncc2c(n1)-c1c([nH]c3ccc(C4CC4)cc13)CCCC2 |
| 2.25 | -1.65 | -1.31 | 40.3 | 26.7 | 2.29 | 0.277 | 17.4 | 4.92 |  |  |  |  |  |  |  |  |  |  | C[C@@H]1CCc2ncc(F)cc2[C@H]2CCCN2c2ccn3ncc(c3n2)C(=O)N1 |
| 7.67 | 1.31 | 1.48 | 45.9 | 25.7 | 13.2 | -2.05 | 30.1 | 3.81 |  |  |  |  |  |  |  |  |  |  | O=C(O)c1ccc(-c2coc3ncc(-c4ccccc4)cc23)cc1Cl |
| 1.53 | -5.08 | -3.26 | 48.4 | 18.4 | 2.54 | 96.5 | 9.89 | 6.88 |  |  |  |  |  |  |  |  |  |  | CC(=O)Nc1ncc(CN2CCC[C@H](Cc3cc(C)nc(C)c3)C2)s1 |
